Active and inactive are the calls of the source.
What was measured:
Assay type in all cases: functional, organism-based
Homo sapiens [1] = species on record: Homo sapiens; experiment: Reversible aggregation effect at low concentration; Active
Homo sapiens [2] = species on record: Homo sapiens; experiment: Biphasic response at low concentration; Active
Homo sapiens [3] = species on record: Homo sapiens; experiment: Agonistic activity against platelet aggregation; Effective agonist; conditions: filed as agonist

Measured: Activity

Nc1ncnc2c1ncn2[C@@H]1O[C@H](COP(=O)(O)OP(=O)(O)O)[C@@H](O)[C@H]1O
active: Homo sapiens [1] | Homo sapiens [2] | Homo sapiens [3] Agonist

From ChEMBL document CHEMBL1123916, “Facile synthesis of 2-[(3-aminopropyl)thio]adenosine 5'-diphosphate: a key intermediate for the synthesis of molecular probes of adenosine 5'-diphosphate function” (J Med Chem, 1987)
